These results are taken from patent US20250171462A1 (NICO Therapeutics, Inc., priority 2022, published 2025).

Like-named read-outs stand apart in the source and are kept apart here.

This test addresses T1, full-length SARM1 (FL-SARM1) (Homo sapiens, UniProt Q6SZW1).
T1 sequence (Q6SZW1 28-724): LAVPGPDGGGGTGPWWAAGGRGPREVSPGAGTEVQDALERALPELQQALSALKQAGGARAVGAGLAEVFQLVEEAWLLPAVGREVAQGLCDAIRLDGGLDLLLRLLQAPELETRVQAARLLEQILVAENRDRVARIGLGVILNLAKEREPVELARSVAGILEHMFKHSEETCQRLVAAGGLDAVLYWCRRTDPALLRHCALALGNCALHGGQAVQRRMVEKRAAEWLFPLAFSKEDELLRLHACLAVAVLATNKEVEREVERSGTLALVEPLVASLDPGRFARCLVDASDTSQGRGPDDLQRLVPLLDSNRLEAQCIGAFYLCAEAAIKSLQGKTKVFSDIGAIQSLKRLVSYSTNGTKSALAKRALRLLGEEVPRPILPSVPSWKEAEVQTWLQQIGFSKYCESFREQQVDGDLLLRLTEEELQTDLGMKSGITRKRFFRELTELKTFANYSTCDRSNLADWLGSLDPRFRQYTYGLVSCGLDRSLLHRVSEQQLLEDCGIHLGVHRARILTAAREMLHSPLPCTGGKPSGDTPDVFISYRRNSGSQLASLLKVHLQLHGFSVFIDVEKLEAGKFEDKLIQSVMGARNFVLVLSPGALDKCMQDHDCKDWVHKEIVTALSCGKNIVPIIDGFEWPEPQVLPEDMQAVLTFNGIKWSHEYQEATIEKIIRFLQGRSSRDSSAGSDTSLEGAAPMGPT
Description: FL-SARM1 cellular lysate assay (NAD/NADH-Glo detection of remaining NAD+, NMN-activated).

Setting [1] is: Activity (μM) (IC50), 11 point curve.
The mark [2] stands for this setting: read-out: Activity (IC50 class), 11 point curve.
Where [3] appears, read: Activity (IC50 class), 11 point curve.

In the case of `C[C@@H]1CC2C[C@H](C1)N2C(=O)Nc1ccc(CF)c(-c2ncc(F)cn2)c1` [Example 179, cis-N-(4-(fluoromethyl)-3-(5-fluoropyrimidin-2-yl)phenyl)-3-methyl-6-azabicyclo[3.1.1]heptane-6-carboxamide], the IC50 is, setting by setting: under setting [1], 0.03 µM; under setting [2], 0.0001 to 1 µM.

As to `Cc1cnc(-c2cc(NC(=O)N3C4CCCC3C4)ccc2C)nn1` [Example 180, N-(4-methyl-3-(6-methyl-1,2,4-triazin-3-yl)phenyl)-6-azabicyclo[3.1.1]heptane-6-carboxamide], the IC50 was 0.9 µM under setting [1] and 0.0001 to 1 µM under setting [2].

As for `Cc1cc(F)c(NC(=O)N2C3CCCC2C3)cc1-c1ncncn1` [Example 181, N-(2-fluoro-4-methyl-5-(1,3,5-triazin-2-yl)phenyl)-6-azabicyclo[3.1.1]heptane-6-carboxamide], the half-maximal inhibitory concentration (IC50) is 1 to 10 µM under setting [3] and 7 µM under setting [1].

Take `Cc1cc(F)c(NC(=O)N2CCOc3cccnc3C2C)cc1-c1cccnn1` (stereo not drawn) [Example 182, N-(2-fluoro-4-methyl-5-(pyridazin-3-yl)phenyl)-5-methyl-2,3-dihydropyrido[2,3-f][1,4]oxazepine-4(5H)-carboxamide]: the IC50 under setting [3] is 1 to 10 µM and the IC50 under setting [1] amounted to 6 µM.

Turning to `Cc1ccc(NC(=O)N2C3C[C@@H](C)C[C@H]2C3)cc1-c1nncc(C(F)(F)F)n1` [Example 184, cis-3-methyl-N-(4-methyl-3-(5-(trifluoromethyl)-1,2,4-triazin-3-yl)phenyl)-6-azabicyclo[3.1.1]heptane-6-carboxamide], the IC50 is, setting by setting: under setting [1], 0.07 µM; under setting [2], 0.0001 to 1 µM.

With `Cc1ccc(NC(=O)N2[C@@H]3C[C@@H](C)C[C@H]2C3)cc1-c1cc(OCF)cnn1` [Example 185, cis-N-(3-(5-(fluoromethoxy)pyridazin-3-yl)-4-methylphenyl)-3-methyl-6-azabicyclo[3.1.1]heptane-6-carboxamide], the 50% inhibitory concentration (IC50) reads like this: under setting [1], 0.05 µM; under setting [2], 0.0001 to 1 µM.

`COC(C)[C@@]12CC(C[C@@H](C)C1)N2C(=O)Nc1ccc(C)c(-c2ncc(F)cn2)c1` (stereo partly drawn) [Example 190, cis-N-(3-(5-fluoropyrimidin-2-yl)-4-methylphenyl)-1-(1-methoxyethyl)-3-methyl-6-azabicyclo[3.1.1]heptane-6-carboxamide]: the 50% inhibitory concentration (IC50) is 0.2 µM under setting [1] and 0.0001 to 1 µM under setting [2].

On to `Cc1ccc(NC(=O)N2C3C[C@@H](C)C[C@H]2C3)cc1-c1nccnn1` [Example 215, cis-3-methyl-N-(4-methyl-3-(1,2,4-triazin-3-yl)phenyl)-6-azabicyclo[3.1.1]heptane-6-carboxamide], for which the 50% inhibitory concentration (IC50) runs as follows: under setting [1], 0.03 µM; under setting [2], 0.0001 to 1 µM.

For `Cc1ccc(NC(=O)N2C3C[C@@H](C)C[C@H]2C3)cc1-c1cc(Cl)cnn1` [Example 216, cis-N-(3-(5-chloropyridazin-3-yl)-4-methylphenyl)-3-methyl-6-azabicyclo[3.1.1]heptane-6-carboxamide], the IC50 is, setting by setting: under setting [1], 0.01 µM; under setting [2], 0.0001 to 1 µM.

For the compound `Cc1ccc(NC(=O)N2C3C[C@@H](C)C[C@H]2C3)cc1-c1cncc(Cl)n1` [Example 217, cis-N-(3-(6-chloropyrazin-2-yl)-4-methylphenyl)-3-methyl-6-azabicyclo[3.1.1]heptane-6-carboxamide], the IC50 was 0.04 µM under setting [1] and 0.0001 to 1 µM under setting [2].

Take `COc1cncc(-c2cc(NC(=O)N3C4C[C@@H](C)C[C@H]3C4)ccc2C)n1` [Example 218, cis-N-(3-(6-methoxypyrazin-2-yl)-4-methylphenyl)-3-methyl-6-azabicyclo[3.1.1]heptane-6-carboxamide]: the concentration for half-maximal inhibition (IC50) was 0.03 µM under setting [1] and 0.0001 to 1 µM under setting [2].

As to `COc1nccnc1-c1cc(NC(=O)N2[C@@H]3C[C@@H](C)C[C@H]2C3)ccc1C` [Example 219, cis-N-[3-(3-methoxypyrazin-2-yl)-4-methylphenyl]-3-methyl-6-azabicyclo[3.1.1]heptane-6-carboxamide], the 50% inhibitory concentration (IC50) runs as follows: under setting [3], 1 to 10 µM; under setting [1], 1 µM.

Take `Cc1ccc(NC(=O)N2C3C[C@H](C)C[C@@H]2C3)cc1-c1cc(F)cnn1` [Example 220, cis-N-[3-(5-fluoropyridazin-3-yl)-4-methylphenyl]-3-methyl-6-azabicyclo[3.1.1]heptane-6-carboxamide]: 0.1 µM corresponded to half-maximal inhibition under setting [1] (IC50) and the 50% inhibitory concentration (IC50) under setting [2] was 0.0001 to 1 µM.

On to `Cc1cc(F)c(NC(=O)N2[C@@H]3C[C@@H](C)C[C@H]2C3)cc1-c1cncnn1` [Example 221, cis-N-[2-fluoro-4-methyl-5-(1,2,4-triazin-6-yl)phenyl]-3-methyl-6-azabicyclo[3.1.1]heptane-6-carboxamide], for which the IC50 is, setting by setting: under setting [1], 0.6 µM; under setting [2], 0.0001 to 1 µM.

With `Cc1ccc(NC(=O)N2[C@@H]3C[C@@H](C)C[C@H]2C3)cc1-c1ncccn1` [Example 223, cis-3-methyl-N-(4-methyl-3-pyrimidin-2-ylphenyl)-6-azabicyclo[3.1.1]heptane-6-carboxamide], the IC50 runs as follows: under setting [1], 0.04 µM; under setting [2], 0.0001 to 1 µM.

In the case of `Cc1ccc(NC(=O)N2C3C[C@@H](C)C[C@H]2C3)cc1-c1cc(F)ccn1` [Example 224, cis-N-[3-(4-fluoropyridin-2-yl)-4-methylphenyl]-3-methyl-6-azabicyclo[3.1.1]heptane-6-carboxamide], the IC50 runs as follows: under setting [1], 0.04 µM; under setting [2], 0.0001 to 1 µM.

As for `Cc1ccc(NC(=O)N2[C@@H]3C[C@@H](C)C[C@H]2C3)cc1-c1cncc(C(F)(F)F)n1` [Example 228, cis-3-methyl-N-[4-methyl-3-[6-(trifluoromethyl)pyrazin-2-yl]phenyl]-6-azabicyclo[3.1.1]heptane-6-carboxamide], the IC50 was 0.09 µM under setting [1] and 0.0001 to 1 µM under setting [2].

For `Cc1ccc(NC(=O)N2[C@@H]3C[C@@H](C)C[C@H]2C3)cc1-c1nccnc1C(F)(F)F` [Example 229, cis-3-methyl-N-[4-methyl-3-[3-(trifluoromethyl)pyrazin-2-yl]phenyl]-6-azabicyclo[3.1.1]heptane-6-carboxamide], the IC50 was 0.2 µM under setting [1] and 0.0001 to 1 µM under setting [2].

With `Cc1ccc(NC(=O)N2[C@@H]3C[C@@H](C)C[C@H]2C3)cc1-c1nccnc1F` [Example 230, cis-N-[3-(3-fluoropyrazin-2-yl)-4-methylphenyl]-3-methyl-6-azabicyclo[3.1.1]heptane-6-carboxamide], the half-inhibitory concentration (IC50) was 0.04 µM under setting [1] and 0.0001 to 1 µM under setting [2].

`Cc1ccc(NC(=O)N2C3C[C@@H](C)C[C@H]2C3)cc1-c1cncc(F)n1` [Example 231, cis-N-[3-(6-fluoropyrazin-2-yl)-4-methylphenyl]-3-methyl-6-azabicyclo[3.1.1]heptane-6-carboxamide]: the half-maximal inhibitory concentration (IC50) under setting [1] was found to be 0.08 µM and the IC50 under setting [2] was 0.0001 to 1 µM.

As for `Cc1ccc(NC(=O)N2CC(C)C2)cc1-c1ncc(F)cn1` [Example 232, N-[3-(5-fluoropyrimidin-2-yl)-4-methylphenyl]-3-methylazetidine-1-carboxamide], the IC50 reads like this: under setting [3], > 10 µM; under setting [1], 20 µM.

Turning to `Cc1ccc(NC(=O)N2C3C[C@@H](C)C[C@H]2C3)cc1-c1nccc(OC(F)F)n1` [Example 233, cis-N-[3-[4-(difluoromethoxy)pyrimidin-2-yl]-4-methylphenyl]-3-methyl-6-azabicyclo[3.1.1]heptane-6-carboxamide], the IC50 is 0.1 µM under setting [1] and 0.0001 to 1 µM under setting [2].

Consider `CCc1ccc(-c2cc(NC(=O)N3C4C[C@@H](C)C[C@H]3C4)ccc2C)nn1` [Example 234, cis-N-[3-(6-ethylpyridazin-3-yl)-4-methylphenyl]-3-methyl-6-azabicyclo[3.1.1]heptane-6-carboxamide], for which the IC50 runs as follows: under setting [1], 0.4 µM; under setting [2], 0.0001 to 1 µM.

`Cc1ccc(NC(=O)N2[C@@H]3C[C@@H](C)C[C@H]2C3)cc1-c1cc(OC(F)F)cnn1` [Example 235, cis-N-[3-[5-(difluoromethoxy)pyridazin-3-yl]-4-methylphenyl]-3-methyl-6-azabicyclo[3.1.1]heptane-6-carboxamide]: the IC50 under setting [1] turned out to be 0.06 µM and the 50% inhibitory concentration (IC50) under setting [2] lay within 0.0001 to 1 µM.

In the case of `Cc1ccc(NC(=O)N2[C@@H]3C[C@@H](C)C[C@H]2C3)cc1-c1nccc(C2CC2)n1` [Example 236, cis-N-[3-(4-cyclopropylpyrimidin-2-yl)-4-methylphenyl]-3-methyl-6-azabicyclo[3.1.1]heptane-6-carboxamide], the IC50 is, setting by setting: under setting [1], 0.7 µM; under setting [2], 0.0001 to 1 µM.

The compound `CCc1ccnc(-c2cc(NC(=O)N3C4C[C@@H](C)C[C@H]3C4)ccc2C)n1` [Example 237, cis-N-[3-(4-ethylpyrimidin-2-yl)-4-methylphenyl]-3-methyl-6-azabicyclo[3.1.1]heptane-6-carboxamide] showed an IC50 under setting [3] of 1 to 10 µM and an IC50 under setting [1] of 1.1 µM.

As to `Cc1ccc(NC(=O)N2[C@@H]3C[C@@H](C)C[C@H]2C3)cc1-c1cncc(C#N)n1` [Example 238, cis-N-[3-(6-cyanopyrazin-2-yl)-4-methylphenyl]-3-methyl-6-azabicyclo[3.1.1]heptane-6-carboxamide], the 50% inhibitory concentration (IC50) reads like this: under setting [1], 0.04 µM; under setting [2], 0.0001 to 1 µM.

For orientation: IC50 means the concentration that inhibits the measured activity by half.
